Measurements taken from US12655116B2, “Substituted isophthalic acid diamides” (Bayer Aktiengesellschaft, priority 2020, dated 2026).

Assays:
[1] = tested on: PHBPU; assay: Pre-emergence herbicidal action against PHBPU; format: in vivo, Pharbitis purpurea; conditions: dosage 80 g/ha
Outline: (§1)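 Visual rating at 3 weeks vs untreated pots; 0–100% scale, 100% = plants died. Treatment: aqueous WP/EC spray onto covering soil, 600–800 l/ha, 0.2% wetter, seeds in sandy loam.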

[2] = tested on: MATIN; assay: Post-emergence herbicidal action against MATIN; format: in vivo, Matricaria inodora
Outline: (§2)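 Weeds in sandy loam soil received a post-emergence spray at the one-leaf stage. Compounds were applied as WP or EC in water, 600 to 800 l/ha, with 0.2% wetting agent. Activity in % was judged visually after roughly 3 weeks against untreated plants.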

[3] = tested on: AMARE; assay: Post-emergence herbicidal action against AMARE; format: in vivo, Amaranthus retroflexus; conditions: 20 g/ha, visual assessment about 3 weeks after treatment, 100% = plants have died, 0% = like control plants
Outline: as §2

[4] = tested on: AVEFA; assay: Pre-emergence herbicidal action against AVEFA; format: in vivo, Avena fatua; conditions: Avena fatua, 504 h; 80 g/ha, pre-emergence
Outline: as §1

[5] = tested on: ECHCG; assay: Post-emergence herbicidal action against ECHCG; format: in vivo, Echinochloa crus-galli
Outline: as §2

[6] = tested on: ECHCG; assay: Pre-emergence herbicidal action against ECHCG; format: in vivo, Echinochloa crus-galli; conditions: 80 g/ha
Outline: as §1

[7] = tested on: ABUTH; assay: Pre-emergence herbicidal action against ABUTH; format: in vivo, Abutilon theophrasti
Outline: as §1

[8] = tested on: VERPE; assay: Post-emergence herbicidal action against VERPE; format: in vivo, Veronica persica
Outline: as §2

[9] = tested on: PHBPU; assay: Post-emergence herbicidal action against PHBPU; format: in vivo, Pharbitis purpurea
Outline: as §2

[10] = tested on: ALOMY; assay: Pre-emergence herbicidal action against ALOMY; format: in vivo, Alopecurus myosuroides
Outline: as §1

[11] = tested on: DIGSA; assay: Pre-emergence herbicidal action against DIGSA; format: in vivo, Digitaria sanguinalis; conditions: Digitaria sanguinalis, 504 h
Outline: as §1

[12] = tested on: SETVI; assay: Post-emergence herbicidal action against SETVI; format: in vivo, Setaria viridis
Outline: as §2

[13] = tested on: MATIN; assay: Pre-emergence herbicidal action against MATIN; format: in vivo, Matricaria inodora
Outline: as §1

[14] = tested on: AMARE; assay: Pre-emergence herbicidal action against AMARE; format: in vivo, Amaranthus retroflexus
Outline: as §1

[15] = tested on: VERPE; assay: Pre-emergence herbicidal action against VERPE; format: in vivo, Veronica persica
Outline: as §1

[16] = tested on: ABUTH; assay: Post-emergence herbicidal action against ABUTH; format: in vivo, Abutilon theophrasti; conditions: visual assessment about 3 weeks after treatment vs untreated controls
Outline: as §2

[17] = tested on: VIOTR; assay: Post-emergence herbicidal action against VIOTR; format: in vivo, Viola tricolor
Outline: as §2

[18] = tested on: DIGSA; assay: Post-emergence herbicidal action against DIGSA; format: in vivo, Digitaria sanguinalis; conditions: Digitaria sanguinalis, 504 h
Outline: as §2

[19] = tested on: VIOTR; assay: Pre-emergence herbicidal action against VIOTR; format: in vivo, Viola tricolor
Outline: as §1

[20] = tested on: POLCO; assay: Pre-emergence herbicidal action against POLCO; format: in vivo, Polygonum convolvulus
Outline: as §1

[21] = tested on: SETVI; assay: Pre-emergence herbicidal action against SETVI; format: in vivo, Setaria viridis
Outline: as §1

[22] = tested on: ALOMY; assay: Post-emergence herbicidal action against ALOMY; format: in vivo, Alopecurus myosuroides; conditions: dosage 20 g/ha, visual assessment about 3 weeks after treatment vs untreated controls
Outline: as §2

[23] = Tripleurospermum inodorum, 504 h, dosage 20 g/ha
[24] = Setaria viridis, 504 h, dosage 20 g/ha
[25] = 80 g/ha, scored visually after 3 weeks vs untreated controls (100% = plants have died, 0% = like control plants)

CCc1c(C(=O)Nc2nnnn2C)ccc(C(F)F)c1C(=O)NC1CC1 [Example 1-279]
100%: pest or weed control at 20 g/ha ([3]; Amaranthus retroflexus, 504 h) | pest or weed control at 80 g/ha ([6]; Echinochloa crus-galli, 504 h) | pest or weed control at 80 g/ha ([7]; Abutilon theophrasti, 504 h, 80 g/ha, scored visually after 3 weeks vs untreated controls (100% = plants have died, 0% = like control plants)) | pest or weed control at 20 g/ha ([7]; Abutilon theophrasti, 504 h, dosage 20 g/ha, scored visually after 3 weeks vs untreated controls, 100% = plants have died, 0% = like control plants, read-out: Pre-emergence action against ABUTH (herbicidal activity in percent)) | pest or weed control at 20 g/ha ([8]; Veronica persica, 504 h, 20 g/ha) | pest or weed control at 20 g/ha ([11]; dosage 20 g/ha) | pest or weed control at 80 g/ha ([11]; dosage 80 g/ha) | pest or weed control at 20 g/ha [13, 23] | pest or weed control at 80 g/ha ([13]; Tripleurospermum inodorum, 504 h, dosage 80 g/ha) | pest or weed control at 20 g/ha ([14]; Amaranthus retroflexus, 504 h, 20 g/ha, scored visually after 3 weeks vs untreated controls, 100% = plants have died, 0% = like control plants) | pest or weed control at 80 g/ha ([14]; Amaranthus retroflexus, 504 h, 80 g/ha, scored visually after 3 weeks vs untreated controls, 100% = plants have died, 0% = like control plants) | pest or weed control at 20 g/ha ([19]; Viola tricolor, 504 h, dosage 20 g/ha) | pest or weed control at 80 g/ha ([19]; Viola tricolor, 504 h, dosage 80 g/ha) | pest or weed control at 80 g/ha ([21]; Setaria viridis, 504 h, dosage 80 g/ha)
80%: pest or weed control at 5 g/ha ([5]; Echinochloa crus-galli, 504 h, dosage 5 g/ha) | pest or weed control at 5 g/ha ([8]; Veronica persica, 504 h, 5 g/ha) | pest or weed control at 80 g/ha ([10]; Alopecurus myosuroides, 504 h, 80 g/ha, pre-emergence, scored visually after 3 weeks vs untreated controls (100% = plants have died, 0% = like control plants)) | pest or weed control at 5 g/ha ([16]; Abutilon theophrasti, 504 h, dosage 5 g/ha) | pest or weed control at 20 g/ha ([20]; Fallopia convolvulus, 504 h, dosage 20 g/ha) | pest or weed control at 20 g/ha [21, 24]
90%: pest or weed control at 80 g/ha ([1]; Ipomoea purpurea, 504 h) | pest or weed control at 5 g/ha ([2]; Tripleurospermum inodorum, 504 h, dosage 5 g/ha) | pest or weed control at 20 g/ha [2, 23] | pest or weed control at 80 g/ha [4] | pest or weed control at 20 g/ha ([5]; Echinochloa crus-galli, 504 h, dosage 20 g/ha) | pest or weed control at 5 g/ha ([9]; Ipomoea purpurea, 504 h, dosage 5 g/ha) | pest or weed control at 20 g/ha ([9]; Ipomoea purpurea, 504 h, dosage 20 g/ha) | pest or weed control at 5 g/ha ([12]; Setaria viridis, 504 h, dosage 5 g/ha) | pest or weed control at 20 g/ha [12, 24] | pest or weed control at 80 g/ha ([15]; Veronica persica, 504 h, dosage 80 g/ha) | pest or weed control at 20 g/ha ([16]; Abutilon theophrasti, 504 h, dosage 20 g/ha) | pest or weed control at 5 g/ha ([17]; Viola tricolor, 504 h, 5 g/ha) | pest or weed control at 20 g/ha ([17]; Viola tricolor, 504 h, 20 g/ha) | pest or weed control at 5 g/ha ([18]; 5 g/ha) | pest or weed control at 20 g/ha ([18]; 20 g/ha) | pest or weed control at 80 g/ha ([20]; Fallopia convolvulus, 504 h, dosage 80 g/ha)

CC(NC(=O)c1c(C(F)(F)F)ccc(C(=O)Nc2nnnn2C)c1C1CC1)C1CC1 (centres unmarked) [Example 1-292]
80%: Pre-emergence action against PHBPU in % [1] | Post-emergence action against MATIN in % ([2]; dosage 5 g/ha) | Post-emergence action against MATIN in % ([2]; dosage 20 g/ha) | Post-emergence action against ECHCG in % ([5]; dosage 5 g/ha) | Post-emergence action against ECHCG in % ([5]; dosage 20 g/ha) | Post-emergence action against VERPE in % ([8]; 5 g/ha) | Post-emergence action against PHBPU in % ([9]; dosage 5 g/ha) | Post-emergence action against PHBPU in % ([9]; dosage 20 g/ha) | Pre-emergence action against ALOMY ([10]; 20 g/ha, scored visually after 3 weeks, 100% = plants have died, 0% = like control plants) | Post-emergence action against ABUTH in % ([16]; dosage 20 g/ha) | Post-emergence action against ALOMY in % [22] | Post-emergence action against VIOTR in % ([17]; 20 g/ha)
90%: Pre-emergence action against ECHCG in % [6] | Post-emergence action against VERPE in % ([8]; 20 g/ha) | Pre-emergence action against ALOMY (herbicidal activity) ([10]; 80 g/ha, pre-emergence, scored visually after 3 weeks vs untreated controls (100% = plants have died, 0% = like control plants)) | Post-emergence action against SETVI in % ([12]; dosage 20 g/ha) | Pre-emergence action against VIOTR in % ([19]; dosage 20 g/ha) | Pre-emergence action against POLCO in % ([20]; dosage 80 g/ha)
100%: Post-emergence action at 20 g/ha against AMARE in % [3] | Pre-emergence action against ABUTH (herbicidal activity) [7, 25] | Pre-emergence action against ABUTH (herbicidal activity in percent) ([7]; dosage 20 g/ha, scored visually after 3 weeks vs untreated controls, 100% = plants have died, 0% = like control plants) | Pre-emergence action against MATIN in % ([13]; dosage 20 g/ha) | Pre-emergence action against MATIN in % ([13]; dosage 80 g/ha) | Pre-emergence action against AMARE in % ([14]; 20 g/ha, scored visually after 3 weeks vs untreated controls, 100% = plants have died, 0% = like control plants) | Pre-emergence action against AMARE in % [14, 25] | Pre-emergence action against VERPE in % ([15]; dosage 20 g/ha) | Pre-emergence action against VERPE in % ([15]; dosage 80 g/ha) | Pre-emergence action against VIOTR in % ([19]; dosage 80 g/ha) | Pre-emergence action against SETVI in % ([21]; dosage 80 g/ha)
